The values below come from patent publication US11414432B2, “Condensed bicyclic heterocyclic derivatives as pest control agents” (Bayer Aktiengesellschaft, priority 2018, dated 2022).

In general, chromatographic logP refers to lipophilicity estimated from chromatographic retention.

The nature of series [1]: log P by HPLC on reversed-phase column (C18), acidic range. The following applies: formic acid in water/acetonitrile, LC-UV. The series is classed as physicochemical. As for the experimental part:
The log P values were determined according to EEC Directive 79/831 Annex V.A8 by HPLC (high-performance liquid chromatography) on a reversed-phase column (C18) using the following methods: ^[a] […] Calibration was carried out using a homologous series of straight-chain alkan-2-ones (having 3 to 16 carbon atoms) with known log P values. The values between successive alkanones are determined by linear regression.

The test system of another series is Ctenocephalides felis. Nature of the series: Ctenocephalides felis oral test. Format: in vivo. The following applies: adult cat fleas, oral via citrated cattle blood, 100 ppm, after 2 days. As for the experimental part:
Ctenocephalides felis—Oral Test
Solvent: dimethyl sulfoxide
To produce a suitable active compound formulation, 10 mg of active compound are mixed with 0.5 ml of dimethyl sulfoxide. Dilution with citrated cattle blood gives the desired concentration.
About 20 unfed adult cat fleas (Ctenocephalides felis) are placed into a chamber which is closed at the top and bottom with gauze. A metal cylinder whose bottom end is closed with parafilm is placed onto the chamber. The cylinder contains the blood/active compound formulation, which can be imbibed by the fleas through the parafilm membrane.
After 2 days, the kill in % is determined. 100% means that all of the fleas have been killed; 0% means that none of the fleas have been killed.

A further series has as its system Meloidogyne incognita. Nature of the series: Meloidogyne incognita test. Format: in vivo. The conditions noted are these: lettuce in sand, egg/larvae suspension, 20 ppm, after 14 days. The procedure: Meloidogyne incognita Test Solvent: 125.0 parts by weight of acetone To produce a suitable active compound formulation, 1 part by weight of active compound is mixed with the stated amount of solvent and the concentrate is diluted to the desired concentration with water. Vessels are filled with sand, active compound solution, an egg/larvae suspension of the southern root-knot nematode (Meloidogyne incognita) and lettuce seeds. The lettuce seeds germinate and the plants develop. The galls develop on the roots. After 14 days, the nematicidal efficacy in % is determined by the formation of galls. 100% means that no galls were found; 0% means that the number of galls on the treated plants corresponds to the untreated control.

The subject of series [2] is Myzus persicae. Nature of the series: Myzus persicae oral test. Format: in vivo. The conditions noted are these: mixed population, oral through parafilm, 4 ppm, after 5 days. As for the experimental part:
Myzus persicae—Oral Test Solvent: 100 parts by weight of acetone To produce a suitable preparation of active compound, 1 part by weight of active compound is dissolved using the specified parts by weight of solvent and made up with water until the desired concentration is attained. 50 μl of the active compound preparation are transferred into microtitre plates and made up to a final volume of 200 μl with 150 μl of IPL41 insect medium (33%+15% sugar). Subsequently, the plates are sealed with parafilm, which a mixed population of green peach aphids (Myzus persicae) within a second microtitre plate is able to puncture and imbibe the solution through. After 5 days, the efficacy in % is determined. 100% means that all the aphids have been killed; 0% means that no aphids have been killed.

The next series has as its system Spodoptera frugiperda. Description: Spodoptera frugiperda spray test. Format: in vivo. The conditions noted are these: caterpillars on maize leaf discs, 100 g/ha, after 7 days. The procedure: Spodoptera frugiperda—Spray Test Solvent: 78.0 parts by weight of acetone • • 1.5 parts by weight of dimethylformamide Emulsifier: alkylaryl polyglycol ether To produce a suitable active compound preparation, 1 part by weight of active compound is dissolved using the stated parts by weight of solvent and made up with water containing an emulsifier concentration of 1000 ppm until the desired concentration is attained. To produce further test concentrations, the formulation is diluted with emulsifier-containing water. Leaf discs of maize (Zea mays) are sprayed with an active compound formulation of the desired concentration and, after drying, populated with caterpillars of the fall armyworm (Spodoptera frugiperda). After 7 days, the efficacy in % is determined. 100% means that all the caterpillars have been killed; 0% means that no caterpillar has been killed.

For another series, the system named is Diabrotica balteata. Description: Diabrotica balteata spray test. Format: in vivo. The conditions noted are these: beetle larvae on germinated wheat grains, 160 μg/cavity, after 7 days. The procedure:
Diabrotica balteata—Spray Test Solvent: 78 parts by weight of acetone • • 1.5 parts by weight of dimethylformamide Emulsifier: alkylaryl polyglycol ether To produce a suitable active compound preparation, 1 part by weight of active compound is dissolved using the stated parts by weight of solvent and made up with water containing an emulsifier concentration of 1000 ppm until the desired concentration is attained. To produce further test concentrations, the formulation is diluted with emulsifier-containing water. Pre-swollen wheat grains (Triticum aestivum) are incubated in a multiwell plate filled with agar and a little water for one day (5 seed grains per cavity). The germinated wheat grains are sprayed with an active compound preparation of the desired concentration. Subsequently, each cavity is infected with 10-20 beetle larvae of Diabrotica balteata. After 7 days, the efficacy in % is determined. 100% means that all wheat plants have grown as in the untreated, uninfected control; 0% means that no wheat plant has grown.

The subject of series [3] is Myzus persicae. Nature of the series: Myzus persicae spray test. The following applies: Chinese cabbage leaf discs, all stages, 100 g/ha, after 5 days. The series is classed as in vivo. The procedure:
Myzus persicae—Spray Test Solvent: 78 parts by weight of acetone • • 1.5 parts by weight of dimethylformamide Emulsifier: alkylaryl polyglycol ether To produce a suitable active compound preparation, 1 part by weight of active compound is dissolved using the stated parts by weight of solvent and made up with water containing an emulsifier concentration of 1000 ppm until the desired concentration is attained. To produce further test concentrations, the formulation is diluted with emulsifier-containing water. Discs of Chinese cabbage leaves (Brassica pekinensis) infested by all stages of the green peach aphid (Myzus persicae) are sprayed with an active compound formulation of the desired concentration. After 5 days, the efficacy in % is determined. 100% means that all the aphids have been killed; 0% means that no aphids have been killed.

As to `Cn1c(C(F)(F)F)cc2nc(-c3nn4cc(C5(C#N)CC5)ccc4c3Br)n(C)c2c1=O`, the chromatographic logP in series [1] came to 3.37.

As for `N#CC1(c2ccc3c(Br)c(C(=O)O)nn3c2)CC1` [3-Bromo-6-(1-cyanocyclopropyl)pyrazolo[1,5-a]pyridine-2-carboxylic Acid], in series [1], the chromatographic logP was determined as 1.55.

Regarding `CCS(=O)(=O)c1c(-c2nc3cc(C(F)(F)F)n(C)c(=O)c3n2C)nn2cc(C3(C#N)CC3)ccc12` [Example I-01], the “efficacy (kill in %)” value with Ctenocephalides felis is on record as 97%. Moreover, the “nematicidal efficacy (formation of galls)” value with Meloidogyne incognita was found to be 100%. The efficacy in the series on Myzus persicae [2] is listed as 100%. For the same compound, in series [1], the chromatographic logP amounted to 2.8.

For `CCS(=O)(=O)c1c(-c2nc3cc(C(F)(F)F)n(C)c(=O)c3n2C)nn2cc(CC#N)ccc12` [Example I-02], the efficacy in the series with Myzus persicae [2] and in the series with Spodoptera frugiperda was 100% throughout.

With `CCS(=O)(=O)c1c(-c2nc3cc(C(F)(F)F)n(C)c(=O)c3n2C)nn2cc(C3CC3)ccc12` [Example I-03], the efficacy in the series with Diabrotica balteata was found to be 100%; in the series with Myzus persicae [3], 90%; in the series with Myzus persicae [2], 100%; in the series on Spodoptera frugiperda, 100%.
